The results in this text go back to patent publication US20260256763A1, “Aromatic Amide Derivative, And Preparation Method Therefor And Use Thereof” (Zhejiang Hisun Pharmaceutical Co., Ltd., priority 2023, published 2026).

One test has as its system OVCAR-3 cells. The test is described as follows: Inhibition on OVCAR-3 cell proliferation (CellTiter-Glo). The format is cell-based. The conditions noted are these: Homo sapiens, OVCAR-3 cells (TP53 R248Q mutation), 72 hours. The method in brief:
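OVCAR-3 (TP53 R248Q) cells seeded at 1000/well overnight, then treated 72 h at 37 °C with compound at final 1000 nM–0.015 nM. CellTiter-Glo luminescence read; inhibition versus 0.3% DMSO control, IC50 by nonlinear regression on log concentration.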
(ATP-based viability assays read luminescence as a measure of living cells.)

Test [1] concerns OVCAR-3 human ovarian adenocarcinoma tumor fragment xenograft. The test is described as follows: Pharmacodynamic testing in OVCAR-3 tumor fragment xenograft model. It is filed as in vivo, BALB/c nude mice. Particulars: 16 days after administration; for Relative tumor volume (x ± S) / Tumor volume (x ± S): mean ± standard error; for Tumor volume (x ± S): in mm³. Here is the method: An anti-tumor effect of Compound 1 of the present invention in a BALB/c nude mouse animal model with subcutaneous OVCAR-3 human ovarian adenocarcinoma tumor fragment xenograft was evaluated.
BALB/c nude mice, female, 6-7 weeks old, purchased from Jiangsu Gempharmatech Biotechnology Co., Ltd.
Mice in a solvent control group were given DMA:CrEL:5% GS=10:10:80 (v:v:v).
AMG650: a proper amount of AMG-650 was weighed, proper amounts of DMA, CrEL and 5% GS were added in sequence, and the obtained system was evenly mixed by ultrasonic vortex to prepare 0.8 mg/mL and 0.4 mg/mL preparations respectively, wherein DMA, CrEL and 5% GS=10:10:80 (v:v:v).
Compound 1: a proper amount of Compound 1 was weighed, proper amounts of DMA, CrEL and 5% GS were added in sequence, and the obtained system was evenly mixed by ultrasonic vortex to prepare 0.8 mg/mL and 0.4 mg/mL preparations respectively, wherein DMA, CrEL and 5% GS=10:10:80 (v:v:v).
An appropriate OVCAR-3 tumor-bearing animal was selected, a 1 mm×1 mm×1 mm OVCAR-3 tumor fragment was acquired aseptically and placed into normal saline for later use, which was used for subcutaneous tumor inoculation in a right side of back of the BALB/c nude mice.
About 1 mm×1 mm×1 mm OVCAR-3 tumor fragment was subcutaneously inoculated in the right side of back of the female BALB/c nude mice. When an average tumor volume reached about 100-250 mm^3, the mice were randomly grouped according to the tumor size, with 6 mice in each group.
Animals in each group were given the test compound once per day according to an animal weight at a fixed time every day by oral administration (po), the animals started to be administered with the test compound for the first time on the day of grouping for 22 consecutive days, and the animal weight was recorded every day. • The 1st group (G1) was a solvent control group; • The 2nd group (G2) and the 3rd group (G3) were orally administered with AMG-650 at administration dosages of 8 mg/kg and 4 mg/kg respectively once per day (QD); and • The 4th group (G4) and the 5th group (G5) were orally administered with Compound 1 at administration dosages of 8 mg/kg and 4 mg/kg respectively once per day (QD).
Tumor formation at an inoculation site of the animals in each group was observed, and a tumor volume was measured twice per week, and calculated according to the following formula: • a tumor volume (TV), a relative tumor volume (RTV), a relative tumor proliferation rate (T/C) and a relative tumor inhibition rate (TGI) were calculated according to the following formulas:
TV (tumor volume)=½×a×b^2, wherein a and b respectively represented a tumor length and a tumor width; (1)
RTV (relative tumor volume)=Vt/V0, wherein V0 was a tumor volume measured at the time of grouping, and Vt was a tumor volume in each measurement; (2)
T/C (%)=TRTV/CRTV×100%, wherein TRTV was RTV of a treatment group, and CRTV was RTV of a solvent control group; and (3)
TGI %=(1−T/C)×100%, wherein T and C were relative tumor volumes of the treatment group and the solvent control group at a specific time point respectively. (4)

The target of the next test is T1, recombinant human KIF18A (Homo sapiens, UniProt Q8NI77).
T1 construct: purchased GenScript
T1 sequence (Q8NI77 whole entry): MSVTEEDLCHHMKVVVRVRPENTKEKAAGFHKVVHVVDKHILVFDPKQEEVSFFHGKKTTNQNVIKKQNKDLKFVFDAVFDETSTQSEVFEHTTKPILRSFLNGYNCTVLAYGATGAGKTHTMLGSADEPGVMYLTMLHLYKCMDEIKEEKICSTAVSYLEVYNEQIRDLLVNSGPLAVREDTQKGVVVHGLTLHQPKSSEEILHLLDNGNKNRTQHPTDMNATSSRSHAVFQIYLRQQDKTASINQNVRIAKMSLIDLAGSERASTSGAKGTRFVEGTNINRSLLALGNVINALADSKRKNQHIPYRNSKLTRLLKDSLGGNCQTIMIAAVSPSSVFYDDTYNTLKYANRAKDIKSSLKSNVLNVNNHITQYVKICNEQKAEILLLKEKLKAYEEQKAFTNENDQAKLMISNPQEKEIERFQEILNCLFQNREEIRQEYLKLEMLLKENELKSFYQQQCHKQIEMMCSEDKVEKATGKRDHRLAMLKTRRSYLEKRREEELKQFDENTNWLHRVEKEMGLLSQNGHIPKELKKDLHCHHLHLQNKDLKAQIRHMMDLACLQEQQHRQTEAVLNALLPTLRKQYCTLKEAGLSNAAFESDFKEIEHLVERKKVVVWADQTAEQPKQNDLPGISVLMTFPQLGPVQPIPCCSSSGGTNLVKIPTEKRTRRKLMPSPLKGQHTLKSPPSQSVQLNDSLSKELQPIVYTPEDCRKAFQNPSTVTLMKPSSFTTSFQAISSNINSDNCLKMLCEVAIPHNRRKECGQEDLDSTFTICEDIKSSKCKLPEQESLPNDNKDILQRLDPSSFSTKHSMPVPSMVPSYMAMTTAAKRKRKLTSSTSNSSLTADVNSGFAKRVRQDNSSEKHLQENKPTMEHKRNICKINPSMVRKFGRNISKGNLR
T1 sequence (P68363 whole entry partner): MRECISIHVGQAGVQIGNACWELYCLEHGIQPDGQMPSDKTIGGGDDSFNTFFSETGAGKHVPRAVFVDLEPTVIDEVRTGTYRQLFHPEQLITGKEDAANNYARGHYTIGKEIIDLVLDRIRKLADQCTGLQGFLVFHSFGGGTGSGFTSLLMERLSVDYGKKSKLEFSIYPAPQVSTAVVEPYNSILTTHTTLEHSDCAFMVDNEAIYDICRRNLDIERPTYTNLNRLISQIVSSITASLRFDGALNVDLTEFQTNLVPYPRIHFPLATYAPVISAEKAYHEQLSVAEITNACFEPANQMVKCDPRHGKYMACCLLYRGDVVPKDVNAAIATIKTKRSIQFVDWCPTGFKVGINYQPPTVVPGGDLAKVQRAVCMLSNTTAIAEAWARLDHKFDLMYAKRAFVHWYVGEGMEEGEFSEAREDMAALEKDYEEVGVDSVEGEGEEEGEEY
T1 sequence (Q9BVA1 whole entry partner): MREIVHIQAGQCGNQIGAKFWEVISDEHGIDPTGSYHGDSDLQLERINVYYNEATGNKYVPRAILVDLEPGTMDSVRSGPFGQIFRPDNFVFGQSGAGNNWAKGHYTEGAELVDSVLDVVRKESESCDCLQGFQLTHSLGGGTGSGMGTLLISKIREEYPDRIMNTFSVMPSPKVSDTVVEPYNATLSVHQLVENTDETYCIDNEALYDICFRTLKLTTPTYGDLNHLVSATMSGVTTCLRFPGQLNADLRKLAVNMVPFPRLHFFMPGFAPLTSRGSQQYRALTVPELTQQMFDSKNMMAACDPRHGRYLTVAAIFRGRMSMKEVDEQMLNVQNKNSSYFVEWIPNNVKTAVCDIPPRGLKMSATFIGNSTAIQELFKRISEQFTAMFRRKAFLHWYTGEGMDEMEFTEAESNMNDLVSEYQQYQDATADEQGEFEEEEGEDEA
The test is described as follows: Inhibition on KIF18A enzyme activity (ADP-Glo). It is filed as biochemical. The conditions noted are these: recombinant human KIF18A 100 nM, ATP 60 μM. An outline of the steps:
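Recombinant human KIF18A (100 nM final) was preincubated with compound for 20 min at room temperature, then ATP (60 μM final) was added for 20 min. ADP formed was quantified by ADP-Glo as a luminescence read-out.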

Consider `CCS(=O)(=O)Nc1ccc(C(=O)Nc2cc3c(c(N4CCC(F)(F)CC4)c2)OCC3)c(N2CCC3(CC2)CC3)c1` [Example 1, N-(7-(4,4-difluoropiperidin-1-yl)-2,3-dihydrobenzofuran-5-yl)-4-(ethylsulfonamido)-2-(6-azaspiro[2.5]octan-6-yl)benzamide], for which the 50% inhibitory concentration (IC50) (commonly the concentration needed to halve the response being measured) in the test with OVCAR-3 cells stood at 0.75 nM; on recombinant human KIF18A it was 52 nM. For the same molecule, the TGI (usually how far tumour growth fell short of that in controls) was 81.3% in test [1] (4 mg/kg po QD) and 95.2% in test [1] (8 mg/kg po QD). In addition, the “Relative tumor volume (x ± S)” value came out at 0.61 ± 0.11 in test [1] (4 mg/kg po QD) and 0.16 ± 0.03 in test [1] (8 mg/kg po QD). The “Tumor volume (x ± S)” value in test [1] (4 mg/kg po QD) is listed as 120 ± 27; in test [1] (8 mg/kg po QD) it was 31 ± 8.
